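Growth conditions: 96-well plates. Treatment: test compound, 48 hours, 5 concentrations. Analysis: linear interpolation between bracketing concentrations; unreached endpoints set to highest concentration. At the TGI there is no net growth.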
Columns and labels:
Test in all cases: growth of human tumour cells (NCI), 48 h
[1] = test system: UACC-257 melanoma
[2] = test system: LOX IMVI melanoma
[3] = test system: MCF7 breast
[4] = test system: A498 renal
[5] = test system: CCRF-CEM leukemia
[6] = test system: SN12C renal
[7] = test system: SK-MEL-28 melanoma
[8] = test system: HL-60(TB) leukemia
[9] = test system: U251 CNS
[10] = test system: M14 melanoma
[11] = test system: SF-295 CNS
[12] = test system: SF-268 CNS
[13] = test system: 786-0 renal
[14] = test system: NCI-H23 lung
[15] = test system: OVCAR-4 ovarian
[16] = test system: SF-539 CNS
[17] = test system: RPMI-8226 leukemia
[18] = test system: MDA-N
[19] = test system: HS 578T breast
[20] = test system: BT-549 breast
[21] = test system: SK-OV-3 ovarian
[22] = test system: MOLT-4 leukemia
[23] = test system: HCT-116 colon
[24] = test system: DU-145 prostate
[25] = test system: SK-MEL-5 melanoma
[26] = test system: CAKI-1 renal
[27] = test system: SR leukemia
[28] = test system: SK-MEL-2 melanoma
[29] = test system: NCI-H226 lung
[30] = test system: T-47D breast
[31] = test system: SNB-75 CNS
[32] = test system: A549 NSCLC
[33] = test system: MDA-MB-231 breast
[34] = test system: KM12 colon
[35] = test system: HCC-2998 colon
[36] = test system: EKVX NSCLC
[37] = test system: HCT-15 colon
[38] = test system: HOP-62 NSCLC
[39] = test system: SW-620 colon
[40] = test system: OVCAR-5 ovarian
[41] = test system: SNB-19 CNS
[42] = test system: OVCAR-8 ovarian
[43] = test system: ACHN renal
[44] = test system: NCI-H522 lung
[45] = test system: COLO 205 colon
[46] = test system: MDA-MB-435
[47] = test system: PC-3 prostate
[48] = test system: UACC-62 melanoma
[49] = test system: MALME-3M melanoma
[50] = test system: HT29 colon
[51] = test system: NCI-H460 lung
[52] = test system: OVCAR-3 ovarian
[53] = test system: K-562 leukemia
[54] = test system: TK-10 renal
[55] = test system: RXF 393 renal
[56] = test system: HOP-92 NSCLC
[57] = test system: UO-31 renal
[58] = test system: IGROV1 ovarian

Measured: TGI

Cc1cccc(NC(=O)/C=C/c2ccccc2)c1C
not listed: [55] | [56] | [57] | [58]
> 100 µM: all other assays above

C=CCNC(=O)N1CC(C)C(=O)Nc2ccccc21 (stereo not given)
not listed: [31] | [48]
> 100 µM: all other assays above

Source: PubChem BioAssay (NCI)
